According to patent US12318393B2, “Modulators of orphan nuclear receptors for NASH and other metabolic disorders” (Emory University, priority 2018, dated 2025):

Experiments:
[1] = Cellular toxicity assay in Huh-7 cells; type: cell-based; details: human, read-out: Cytotoxicity (IC50, μM) Huh-7
Experimental: The toxicity of the compounds was assessed in human PBM, CEM (human lymphoblastoid), and Huh-7 cells, as described previously (see Schinazi R. F., Sommadossi J.-P., Saalmann V., Cannon D. L., Xie M.-Y., Hart G. C., Smith G. A. & Hahn E. F. Antimicrob. Agents Chemother. 1990, 34, 1061-67). Cycloheximide was included as positive cytotoxic control, and untreated cells exposed to solvent were included as negative controls. The cytotoxicity IC50 was obtained from the concentration-response curve using the median effective method described previously (see Chou T.-C. & Talalay P. Adv. Enzyme Regul. 1984, 22, 27-55; Belen'kii M. S. & Schinazi R. F. Antiviral Res. 1994, 25, 1-11).

Sgp130FC mice = test: Liver triglycerides and lipid accumulation in Sgp130FC mice (NASH model); type: in vivo
Experimental: Sgp130FC mice specifically blocks IL-6 trans-signaling without affecting classic IL-6 signaling. […] Nine-month-old Sgp130FC mice were injected i.p. with Compound 1 (7.5 mg/kg) or vehicle control twice a week for four weeks (total of 8 injections). The mice were sacrificed after 4 weeks, triglyceride levels were measured from liver and skeletal muscle and hepatic lipid accumulation was visualized using H&E staining.
Compound 1 and AntagomiR injections to mice. C57BL/6 male mice, 7-8 weeks old, or Sgp130FC, 9-month-old male mice, were injected i.p. with 7.5 mg/kg Compound 1 dissolved in saline and 3% DMSO. Saline was injected as control. Mice were hydrodynamic tail vain injected with antagomiR-122 or antagomiR-control (negative control) (5 μg/mouse in 1.5 ml saline). Mice were sacrificed according to the legend of the figure describing the experimental results and the livers, white adipose and skeletal muscle tissues were frozen in liquid nitrogen or in OCT embedded frozen blocks, for further RNA and histologic analysis. AntagomiRs were obtained from Sigma Aldrich, see Table 3.
Triglycerides and β-hydroxybutyrate quantification. To determine the liver and muscle lipid content, muscle and liver tissues (40-80 mg) were homogenized in 0.5 ml of chloroform: Tris solution (v/v, 1:1), the homogenate was transferred to 1 ml of chloroform: methanol solution (v/v, 2:1) centrifuged at 3000 rpm for 10 min. The organic phase was mixed with 5% Triton X100 in chloroform, dried and re-dissolved in water. After lipid extraction, TG concentration in samples was measured with Triglyceride Quantification Kit (BioVision), according to the manufactures instructions. β-hydroxybutyrate was determined utilizing commercial colorimetric kits (BioVision) directly from plasma samples.

[2] = system: C57BL/6 mice fed with high fat diet (HFD); test: HFD-fed C57BL/6 mouse model of NASH, Compound 1 15 mg/kg; type: in vivo
Experimental: To determine the liver and muscle lipid content, muscle and liver tissues (40-80 mg) were homogenized in 0.5 ml of chloroform: Tris solution (v/v, 1:1), the homogenate was transferred to 1 ml of chloroform:methanol solution (v/v, 2:1) centrifuged at 3000 g (at −2° C.) for 10 min (Heraeus Megafuge 16R centrifuge). The organic phase was mixed with 5% Triton X100 in chloroform, dried and re-dissolved in water. After lipid extraction, triglyceride (TG) concentration in samples was measured with Triglyceride Quantification Kit (BioVision), according to the manufactures instructions. Plasma Free fatty acids and β-hydroxybutyrate were determined utilizing commercial colorimetric kits (BioVision) directly from plasma samples.
Male C57BL/6J mice, 7 to 8 weeks old, were housed randomly in standard cages and were fed a HFD, or atherogenic diet (consisting 1% Chol and 0.5% cholic acid, see also Table 3). All mice had free access to water during the experimental period. During the feeding period body weight was monitored every 3 days. In the HFD experiment, after 4 or 6 weeks, the resultant obese mice were treated with antagomiR-122 ([…] once a week for 3 weeks), or i.p. injected with Compound 1 (RORα agonist, 7.5 mg/kg twice a week for 3 weeks; or 15 mg/kg 3 times a week for 3 weeks). The obese control (HFD) group was administered only saline with DMSO and antagomiR-control. After 3 weeks of treatment mice were sacrificed and livers were taken for RNA-seq analysis. Livers, white adipose, and skeletal muscle tissues were frozen in liquid nitrogen or in optimum cutting temperature embedded frozen blocks, for further RNA and histologic analysis. In the atherogenic diet experiment mice were treated with 15 mg/kg Compound 1 after 3 weeks with the diet. After 3.5 weeks of treatment, mice were sacrificed, and the livers were frozen in liquid nitrogen or in optimum cutting temperature embedded frozen blocks. Plasma was collected from atherogenic diet-fed mice and saved in −20° C. for ALT and AST analysis using the Reflotron® Analyzer and test-strips (Roche).
Experimental design: C57BL/6 mice fed for 6 weeks with high fat diet (HFD) were injected with 15 mg/kg Compound 1 (or saline+DMSO) 3 times a week for 3 weeks (n=6).
Experimental design: C57BL/6 mice fed for 6 weeks with HFD were injected with 15 mg/kg Compound 1 (or saline+DMSO) 3 times a week for 3 weeks (n=6).

[3] = system: C57BL/6 mice fed with HFD; test: Insulin tolerance test in HFD-fed C57BL/6 mice; type: in vivo; details: 15 mg/kg 3 times a week for 3 weeks
Experimental: At 4 months of age, an insulin tolerance test was performed on fasted C57BL/6 male mice following HFD feeding for 9 weeks following Compound 1 or saline with DMSO injections. Mice received an i.p. injection of human insulin (Actrapid) at a dosage of 0.88 units/kg followed by glucose checks every 20 minutes. […] Glucose measurements were assessed on blood from the tail following a tail snip at indicated time-points using a blood glucometer (Accu-Chek) and test strips (Accu-Chek).
Experimental design: C57BL/6 mice fed for 6 weeks with HFD were injected with 15 mg/kg Compound 1 (or saline+DMSO) 3 times a week for 3 weeks (n=6). Whole-blood glucose levels during an insulin tolerance test (ITT) in HFD fed Compound 1-treated mice vs. HFD-fed saline-treated mice and normal-diet fed mice (control ND); minutes indicate time after insulin injection. N.s.=not significant.

[4] = 7.5 mg/kg i.p. twice/week, four weeks
[5] = 15 mg/kg 3 times a week for 3 weeks

O=C1Nc2cc(C(=O)N3CCC(Cc4ccccc4)CC3)ccc2Nc2ccccc21 [Compound 1]
IC50 [1]: 10.4 µM | hepatic lipid accumulation and droplet formation (H&E staining) (Sgp130FC mice; 7.5 mg/kg i.p. twice a week for four weeks): markedly reduces | reduction of liver triglyceride levels (Sgp130FC mice; 7.5 mg/kg i.p. twice a week for four weeks, vs saline): approximately 3 fold | MicroRNA-18 plasma and liver levels (negative control) (Sgp130FC mice; [4]): not affected | liver and muscle triglyceride levels (Sgp130FC mice; [4]): reduces | miR-122 expression (plasma, liver) (Sgp130FC mice; [4]): increases | body weight at end of experiment [2, 5]: significantly reduced | decrease of (liver) triglyceride levels compared to untreated HFD mice [2, 5]: 5 fold | expression and secretion of miR-122 and precursors in plasma and liver [2, 5]: induced | hepatic lipid droplets [2, 5]: reduced | liver/body weight ratio, treated vs untreated group [2, 5]: decrease | expression of RORα-regulated genes FGF21 and Gpase6 ([2]; 15 mg/kg 3 times a week for 3 weeks, liver): significantly induced | WAT inflammation ([2]; mice with established NASH on HFD): reducing | insulin sensitivity compared to the untreated cohort [3]: improves | blood glucose in insulin tolerance test after 100 minutes ([3]; 100 minutes after insulin): 70% | blood glucose, initial decrease in insulin tolerance test ([3]; after 45 minutes post-injection of insulin): approximately 55%
